Our source for the Toxicity values is ChEMBL document CHEMBL2363022, “Malaria Box Schistosomiasis Screening Data” (2013).

The structures appear in SMILES notation.

Type in all cases: functional
Holding throughout (set-up): scale not given here

Assay [1] concerns Schistosoma mansoni.
Assay [2] concerns Schistosoma mansoni. This is another data set of the same source.
For assay [3], the system named is Schistosoma mansoni. This is another data set of the same source.

As for `CSc1ccccc1C(=O)Nc1nc(-c2ccccn2)cs1`, the Toxicity in assay [1], in assay [2] and in assay [3] was 0 in each case.
For the molecule `CCOc1cc(Cl)c(C(C)NC(=O)c2ccccc2)cc1OCC` (configuration not stated), the Toxicity in assay [1], in assay [2] and in assay [3] was 0 each time.
Regarding `CC(C)CNC(=O)c1c(N)n(CCc2ccccc2F)c2nc3ccccc3nc12`, the Toxicity is 0 in assay [1], 2 in assay [2] and 2 in assay [3].
As to `O=C(Nc1ccc(Cl)c(Cl)c1)Nc1ccc(Cl)c(Cl)c1`, the Toxicity in assay [1] is on record as 3; in assay [2], 4; in assay [3], 3.
On to `CCCCNc1nc(NC(C)(C)C)nc(NC(C)(C)C)n1`, for which the Toxicity in assay [1] stood at 0; in assay [2], 4; in assay [3], 4.
With `COc1cc(C(=O)ON=C(N)Cc2cccc3ccccc23)cc(OC)c1OC`, the results for the Toxicity in assay [1], in assay [2] and in assay [3] were 0, 4 and 3, respectively.
As for `OCCNc1nc(Nc2ccc(Cl)c(Cl)c2)nc2ccccc12`, the results for the Toxicity in assay [1], in assay [2] and in assay [3] were 2, 4 and 0, respectively.
On the same counts, the results for `CCOC(=O)c1cn(CC)c2cc(N(C)CCc3ccc(OC)c(OC)c3)c(F)cc2c1=O` are 0, 0 and 0.
For `CCOC(=O)c1cn(CC)c2cc(N3CCCCC3)c(F)cc2c1=O`, the Toxicity in assay [1], in assay [2] and in assay [3] was 0 in each case.
As for `CC1(c2ccccc2)Nc2ccccc2-c2nc3ccccc3n21` (configuration not stated), the Toxicity in assay [1], in assay [2] and in assay [3] was 0 in each case.
`CCCCN(CCCC)S(=O)(=O)c1ccc(NC(=O)c2ccco2)cc1`: the Toxicity in assay [1], in assay [2] and in assay [3] was 0 each time.
In the case of `O=C(Nc1ccsc1C(=O)NC1CCCCC1)c1ccc(F)cc1`, the values for the Toxicity in assay [1], in assay [2] and in assay [3] were 2, 0 and 0, respectively.
In the case of `CCOc1ccc(/C=C/c2nc(=O)c3ccccc3o2)cc1`, the Toxicity in assay [1], in assay [2] and in assay [3] was 0 each time.
As to `CC1CCN(Cc2c(O)ccc3cc(-c4nc5ccccc5s4)c(=O)oc23)CC1`, the Toxicity in assay [1], in assay [2] and in assay [3] was 0 throughout.
Consider `Cc1cccc(Nc2nc(N)c3ccccc3n2)c1.Cl`, for which the Toxicity worked out at 2 in assay [1], 0 in assay [2] and 0 in assay [3].
On to `COc1ccc(NC(=O)C2c3ccccc3C(=O)N(CC(C)C)C2c2cccs2)cc1` (configuration not stated), for which the Toxicity in assay [1] is 1; in assay [2], 0; in assay [3], 0.
On to `O=C(Nc1ccc(CN2CCOCC2)cc1)c1ccc(-c2ccc(Br)cc2)o1`, for which the Toxicity in assay [1], in assay [2] and in assay [3] was 0 in each case.
As for `Cc1c(C)n(CC(O)CNC2CCCCC2C)c2ccccc12` (configuration not stated), the Toxicity in assay [1], in assay [2] and in assay [3] was 0 throughout.
Turning to `Cc1ccc(CSCc2ccc(C(=O)NC3CC3)o2)cc1`, the Toxicity in assay [1], in assay [2] and in assay [3] was 0 each time.
Take `CCN(CC)CCNc1ncnc2c1[nH]c1ccc(Cl)cc12`: the Toxicity in assay [1], in assay [2] and in assay [3] was 0 each time.
`O=c1nc(C=Cc2ccc(Cl)cc2)oc2ccccc12`: the Toxicity worked out at 2 in assay [1], 0 in assay [2] and 0 in assay [3].
For the molecule `CCCc1cc(O)c2c3c(c(=O)oc2c1)CN(C)CC3`, the Toxicity in assay [1], in assay [2] and in assay [3] was 0 throughout.
With `CCCCCCc1cc2cc(-c3csc(C=Cc4ccccc4)n3)c(=O)oc2cc1O`, the Toxicity in assay [1], in assay [2] and in assay [3] was 0 throughout.
Take `O=C(Nc1ccccc1O)c1ccc(-c2ccc(Cl)cc2Cl)o1`: the Toxicity in assay [1], in assay [2] and in assay [3] was 0 each time.
Take `N#Cc1nc(Cc2cccc3ccccc23)oc1N1CCN(C(c2ccccc2)c2ccccc2)CC1`: the Toxicity in assay [1], in assay [2] and in assay [3] was 0 throughout.
For `CN(C)c1ccc(C(O)(c2ccc(N(C)C)cc2)c2ccc(N(C)C)cc2)cc1` [METHYLROSANILINE], the results for the Toxicity in assay [1], in assay [2] and in assay [3] were 2, 4 and 2, respectively.
Consider `Cc1cc(NC(=O)C2c3ccccc3C(=O)N(CC(C)C)C2c2cccs2)no1` (configuration not stated), for which the Toxicity in assay [1], in assay [2] and in assay [3] was 0 throughout.
Take `CCOc1cc2c(cc1OCC)C(c1cc(C)c(O)c(C)c1)NCC2.Cl` (configuration not stated): the results for the Toxicity in assay [1], in assay [2] and in assay [3] were 2, 0 and 0, respectively.
Turning to `CCC1(C)CC(CCNCc2ccccc2O)(c2ccc(C)cc2)CCO1` (configuration not stated), the Toxicity in assay [1] is recorded as 2; in assay [2], 4; in assay [3] it was 2.
With `CCOc1ccc2nc(C)cc(Nc3ccc(Br)cc3)c2c1`, the results for the Toxicity in assay [1], in assay [2] and in assay [3] were 2, 4 and 4, respectively.
As for `COc1ccc(-c2c(C)nn3c(N)c(C#N)cnc23)cc1OC`, the Toxicity in assay [1], in assay [2] and in assay [3] was 1 each time.
With `COc1ccc(C(=O)NC(c2ccc(Cl)cc2Cl)c2cc(Cl)c3cccnc3c2O)cc1` (configuration not stated), the Toxicity in assay [1], in assay [2] and in assay [3] was 0 throughout.
For the molecule `Cc1ccc(Cl)cc1N1CCN(CCCNC(=O)C2CCN(c3nc4ccccc4[nH]3)CC2)CC1`, the Toxicity is reported as 0 in assay [1], 3 in assay [2] and 0 in assay [3].
As to `OC1=C2C(=Nc3ccccc3SC2c2ccc(Br)cc2)c2ccccc21` (configuration not stated), the Toxicity in assay [1] is 1; in assay [2], 0; in assay [3], 0.
Turning to `N=c1c2ccccc2nnn1-c1cccc(C(F)(F)F)c1`, the Toxicity in assay [1], in assay [2] and in assay [3] was 0 each time.
Take `Cc1cccc(N2C(=O)C3C(C2=O)C2(c4ccccc4)C(=O)C3(c3ccccc3)C(c3ccc4c(c3)OCO4)=C2c2ccc3c(c2)OCO3)c1` (configuration not stated): the Toxicity in assay [1], in assay [2] and in assay [3] was 0 throughout.
As for `CCc1ccc(Nc2cc(C)c3ccc(O)cc3n2)cc1.Cl`, the Toxicity in assay [1] is given as 2; in assay [2], 3; in assay [3], 2.
For the molecule `Cn1c(C(=O)c2cccc3ccccc23)nc2ccccc21`, the Toxicity in assay [1], in assay [2] and in assay [3] was 0 throughout.
For the molecule `Cc1ccccc1OCCSc1nc2ccc(NC(=O)c3cccs3)cc2s1`, the Toxicity in assay [1], in assay [2] and in assay [3] was 0 each time.
Regarding `COc1cc(CNCCc2ccc(Cl)cc2)cc(OC)c1O`, the Toxicity in assay [1], in assay [2] and in assay [3] was 0 each time.
In the case of `O=C(Nc1ccc(Br)cc1)Nc1cccc(Cl)c1`, the Toxicity in assay [1] was found to be 0; in assay [2], 3; in assay [3], 0.
On to `CC(=O)Nc1nnc(SCc2c(C)cc(C(C)(C)C)cc2C)s1`, for which the Toxicity in assay [1], in assay [2] and in assay [3] was 0 throughout.
For `CCCCCC(=O)N1c2ccccc2N=C2CC(c3ccc(OC)c(OC)c3)CC(O)=C2C1c1ccc(C(F)(F)F)cc1` (configuration not stated), the Toxicity in assay [1], in assay [2] and in assay [3] was 0 in each case.
Take `CCOc1c(Cl)cc(CNC(C)C(O)c2ccccc2)cc1OC` (configuration not stated): the Toxicity in assay [1], in assay [2] and in assay [3] was 0 in each case.
For `Nc1ccc(-c2nc3cc(Oc4ccc(Oc5ccc6[nH]c(-c7ccc(N)cc7)nc6c5)cc4)ccc3[nH]2)cc1`, the Toxicity was 0 in assay [1], 2 in assay [2] and 0 in assay [3].
Take `Brc1ccc(Nc2nc3ccccc3nc2Nc2ccc(Br)cc2)cc1`: the values for the Toxicity in assay [1], in assay [2] and in assay [3] were 3, 4 and 4, respectively.
`Cc1cc(N2CCN(C3CCCC3)CC2)n2c(nc3ccccc32)c1C#N`: the Toxicity in assay [1], in assay [2] and in assay [3] was 0 in each case.
In the case of `c1ccc2cc3c(Nc4ccc(N5CCOCC5)cc4)ccnc3cc2c1`, the Toxicity was 2 in assay [1], 4 in assay [2] and 4 in assay [3].
`CC(NCc1ccccc1)c1cc(Cl)ccc1O` (configuration not stated): the values for the Toxicity in assay [1], in assay [2] and in assay [3] were 2, 0 and 0, respectively.
Take `CCCc1c(C)nc2ccccc2c1O`: the Toxicity in assay [1], in assay [2] and in assay [3] was 0 throughout.
For `CC(C)(C)c1ccc(C2CC3=Nc4ccccc4N(C(=O)c4ccccc4Cl)C(c4ccc(F)cc4)C3=C(O)C2)cc1` (configuration not stated), the results for the Toxicity in assay [1], in assay [2] and in assay [3] were 1, 4 and 1, respectively.
`COc1ccc(-c2cc3c(SCC(=O)Nc4cc(C(F)(F)F)ccc4Cl)nccn3n2)cc1`: the Toxicity in assay [1], in assay [2] and in assay [3] was 0 in each case.
`CCCCOc1ccc(C(=O)Nc2cc(C)on2)cc1`: the Toxicity in assay [1], in assay [2] and in assay [3] was 0 in each case.
On to `O=C(Nc1ccc(Cl)cc1C(=O)Nc1ccncc1)c1ccc(Cl)cc1Cl`, for which the Toxicity in assay [1], in assay [2] and in assay [3] was 0 each time.
